Experimental data reported in US20210214713A9, “METHODS FOR EXPERIMENTAL EVOLUTION OF NATURAL AND SYNTHETIC MICROBES” (priority 2017, published 2021).
Like-named read-outs stand apart in the source and are kept apart here.

Assays:
[1] = test system: haploid and diploid yeast populations (ySK116, ySK743, ySK116x743); format: cell-based, S. cerevisiae; conditions: 30° C., OD 0.25-0.3, over the 20 h following drug addition
Method: Single colonies of fluorescently labelled haploid MATα (ySK116), fluorescently labelled haploid MATα (ySK743), and fluorescently labelled diploid control (ySK116x743) cells were grown overnight in YPD. These overnights were used to seed three eVOLVER vials at OD 0.05 (containing YPAD+50 ug/mL carbenicillin+25 ug/mL chloramphenicol). Cells were maintained at 30° C. in a density window of OD 0.25-0.3 for several generations in order to measure a baseline growth rate. At 16 h post-inoculation, cells from each haploid population were transferred by the vial-to-vial transfer device into the same fresh vial containing YPAD in order to create a new pre-drug to diploid population.
Next, cyclohexamide (CHX) was added to the haploid MATα vial, ketoconazole (KETO) was added to the MATα vial, and both drugs were added to the diploid control. Using the media selection portion of the vial-to-vial transfer device, 1 mL aliquots of media at 20× drug concentration were used to achieve a step-function transition to the final 1× drug concentration in each vial (0.2 ug/mL CHX for MATα, 6 ug/mL KETO for MATα, 0.2 ug/mL CHX+6 ug/mL KETO for the diploid control).

[2] = test system: diploid pool samples yBW003, yBW008, yBW009; assay: Growth rate assay to evaluate antifungal resistance of diploid pools in eVOLVER; format: cell-based, S. cerevisiae; conditions: 6 ug/mL KETO only, seeded at OD 0.1, 30° C., 24 h without dilution
Method: As an alternative metric to evaluate performance of the diploids formed during the experiment, a growth rate assay was performed in media containing each drug in isolation or combination. Three diploid pool samples were assayed: yBW003 from to, yBWOO8 from t1, and yBW009 from t2. 100 uL of each frozen stock created from post-selection cultures was thawed, added to 2 mL YPAD and then grown in culture tubes in a shaking incubator for 16 h at 30° C. These cultures were used to seed duplicate eVOLVER vials containing media with one of four drug conditions (no drug, 0.2 ug/mL CHX only, 6 ug/mL KETO only, both 0.2 ug/mL CHX+6 ug/mL KETO) at an initial density of OD 0.1. Each vial received an estimated 3.2×10^7 cells from the non-clonal population that comprised each sample pool. Cultures were maintained in eVOLVER at 30° C. for 24 h without dilution, while tracking density continuously. Growth rate was calculated for each culture over the density range OD 0.2-0.8 (FIG. 43).

C[C@@H]1C[C@@H]([C@H](O)CC2CC(=O)NC(=O)C2)C(=O)[C@@H](C)C1 [CHX, cyclohexamide]
Growth rate relative to its original (pre-drug) value ([1]; 0.2 ug/mL CHX, haploid vial (founder ySK116)): roughly 10%

CC(=O)N1CCN(c2ccc(OCC3COC(Cn4ccnc4)(c4ccc(Cl)cc4Cl)O3)cc2)CC1 (stereo not drawn) [KETO, ketoconazole]
Growth rate relative to its original (pre-drug) value ([1]; 6 ug/mL KETO, haploid MATα vial (founder ySK743)): roughly 10% | Effect on growth rate of diploid pools [2]: not observed to significantly affect the growth rate
